Experimental findings from the NIST ThermoML archive (doi:10.1016/j.fluid.2013.07.002) are described below.

Numbers after ± are expanded uncertainties.

The conditions of the series: Crystal; visual observation.

`CCCCCCCCCCCCCCCCCCO` [1-octadecanol]: the Normal melting temperature was found to be 58 ± 0.39 °C.
